pEC50: −log10 of the molar value. Where two headings read alike, the source gives them in different places.
Experiments:
[1] = system: SARS-CoV-2 (USA_WA1/2020); assay: Antiviral Activity from SARS-CoV-2 Infection (cytopathic effect, Cell Titer-Glo); format: cell-based; conditions: Severe acute respiratory syndrome coronavirus 2, Vero C1008, 72 h, tested alone or with P-gp inhibitor CP-100356 2 μM (table does not say which); for pEC50: VeroE6 cells enriched for hACE2, MOI 0.002, 3-day incubation, read-out: Geometric Mean EC50
SARS-CoV-2 3CL protease = target: T1, SARS-CoV-2 3CL protease (Severe acute respiratory syndrome coronavirus 2, UniProt P0DTD1); assay: SARS-CoV-2 Coronavirus 3C Protease FRET Assay; format: biochemical; conditions: Examples 14-78 and 114 (second head of Table 2); Morrison equation fit, 15 nM enzyme, 25 μM peptide substrate; read-out: Geometric Mean Ki (nM) IC50
T1 construct: measures the activity of full-length SARS-CoV-2 3CL protease

SMILES | EC50 ([1]; read-out: Geometric Mean EC50 (nM), VeroE6 cells enriched for hACE2, MOI 0.002, 3-day incubation) | Ki (SARS-CoV-2 3CL protease) | pEC50 [1]
CC(C)(C)[C@H](NS(=O)(=O)C(F)(F)F)C(=O)N1C[C@H]2[C@@H]([C@H]1C(=O)N[C@@H](C[C@@H]1CCNC1=O)C(=O)COc1ccc(F)cc1)C2(C)C [Example 29, (1R,2S,5S)-N-{(2S)-4-(4-fluorophenoxy)-3-oxo-1-[(3S)-2-oxopyrrolidin-3-yl]butan-2-yl}-6,6-dimethyl-3-[3-methyl-N-(trifluoromethanesulfonyl)-L-valyl]-3-azabicyclo[3.1.0]hexane-2-carboxamide] | 57 nM | 4.69 nM | –
COC(=O)N[C@H](C(=O)N1C[C@H]2[C@@H]([C@H]1C(=O)N[C@@H](C[C@@H]1CCNC1=O)C(=O)COc1ccccc1)C2(C)C)C(C)(C)C [Example 30, methyl{(2S)-1-[(1R,2S,5S)-6,6-dimethyl-2-({(2S)-3-oxo-1-[(3S)-2-oxopyrrolidin-3-yl]-4-phenoxybutan-2-yl}carbamoyl)-3-azabicyclo[3.1.0]hexan-3-yl]-3,3-dimethyl-1-oxobutan-2-yl}carbamate] | – | 2.15 nM | 7.57
CCn1nc(C)cc1OCC(=O)[C@H](C[C@@H]1CCNC1=O)NC(=O)[C@@H]1[C@@H]2[C@H](CN1C(=O)[C@@H](NC(=O)OC)C(C)(C)C)C2(C)C [Example 33, methyl {(2S)-1-[(1R,2S,5S)-2-({(2S)-4-[(1-ethyl-3-methyl-1H-pyrazol-5-yl)oxy]-3-oxo-1-[(3S)-2-oxopyrrolidin-3-yl]butan-2-yl}carbamoyl)-6,6-dimethyl-3-azabicyclo[3.1.0]hexan-3-yl]-3,3-dimethyl-1-oxobutan-2-yl}carbamate] | – | 3.04 nM | 5.90
CC(C)(C)[C@H](NS(=O)(=O)C(F)(F)F)C(=O)N1C[C@H]2[C@@H]([C@H]1C(=O)N[C@@H](C[C@@H]1CCNC1=O)C(=O)COc1cc(F)ccc1F)C2(C)C [Example 34, (1R,2S,5S)-N-{(2S)-4-(2,5-difluorophenoxy)-3-oxo-1-[(3S)-2-oxopyrrolidin-3-yl]butan-2-yl}-6,6-dimethyl-3-[3-methyl-N-(trifluoromethanesulfonyl)-L-valyl]-3-azabicyclo[3.1.0]hexane-2-carboxamide] | – | 6.95 nM | 7.07
CC(C)(C)[C@H](NS(=O)(=O)C(F)(F)F)C(=O)N1C[C@H]2[C@@H]([C@H]1C(=O)N[C@@H](C[C@@H]1CC(O)NC1=O)C(=O)COc1ccc(F)cc1F)C2(C)C (stereo partly drawn) [Example 38, (1R,2S,5S)-N-{(2S)-4-(2,4-difluorophenoxy)-1-[(3R)-5-hydroxy-2-oxopyrrolidin-3-yl]-3-oxobutan-2-yl}-6,6-dimethyl-3-[3-methyl-N-(trifluoromethanesulfonyl)-L-valyl]-3-azabicyclo[3.1.0]hexane-2-carboxamide] | – | 4.12 nM | 5.86
CC(C)[C@H](NC(=O)C(F)(F)F)C(=O)N1C[C@H]2[C@@H]([C@H]1C(=O)N[C@@H](C[C@@H]1CC(O)NC1=O)C(=O)COc1ccc(F)cc1F)C2(C)C (stereo partly drawn) [Example 39, (1R,2S,5S)-N-{(2S)-4-(2,4-difluorophenoxy)-1-[(3R)-5-hydroxy-2-oxopyrrolidin-3-yl]-3-oxobutan-2-yl}-6,6-dimethyl-3-[N-(trifluoroacetyl)-L-valyl]-3-azabicyclo[3.1.0]hexane-2-carboxamide] | – | 3.7 nM | 6.51
CC(C)[C@H](NS(=O)(=O)C(F)(F)F)C(=O)N1C[C@H]2[C@@H]([C@H]1C(=O)N[C@@H](C[C@@H]1CCNC1=O)C(=O)COc1cccc(Cl)c1)C2(C)C [Example 40, (1R,2S,5S)-N-{(2S)-4-(3-chlorophenoxy)-3-oxo-1-[(3S)-2-oxopyrrolidin-3-yl]butan-2-yl}-6,6-dimethyl-3-[N-(trifluoromethanesulfonyl)-L-valyl]-3-azabicyclo[3.1.0]hexane-2-carboxamide] | – | 4.22 nM | 6.95
CC(C)[C@H](NC(=O)C(F)(F)F)C(=O)N1C[C@H]2[C@@H]([C@H]1C(=O)N[C@@H](C[C@@H]1CC(=O)NC1=O)C(=O)COc1ccc(F)cc1F)C2(C)C [Example 42, (1R,2S,5S)-N-{(2S)-4-(2,4-difluorophenoxy)-1-[(3R)-2,5-dioxopyrrolidin-3-yl]-3-oxobutan-2-yl}-6,6-dimethyl-3-[N-(trifluoroacetyl)-L-valyl]-3-azabicyclo[3.1.0]hexane-2-carboxamide] | – | 7.05 nM | 6.52
CC(C)(C)[C@H](NS(=O)(=O)C(F)(F)F)C(=O)N1C[C@H]2[C@@H]([C@H]1C(=O)N[C@@H](C[C@@H]1CC(=O)NC1=O)C(=O)COc1ccc(F)cc1F)C2(C)C [Example 44, (1R,2S,5S)-N-{(2S)-4-(2,4-difluorophenoxy)-1-[(3R)-2,5-dioxopyrrolidin-3-yl]-3-oxobutan-2-yl}-6,6-dimethyl-3-[3-methyl-N-(trifluoromethanesulfonyl)-L-valyl]-3-azabicyclo[3.1.0]hexane-2-carboxamide] | – | 8.95 nM | 6.39
CC(C)[C@H](NC(=O)C(F)(F)F)C(=O)N1C[C@H]2[C@@H]([C@H]1C(=O)N[C@@H](C[C@@H]1CCNC1=O)C(=O)COc1ccccc1F)C2(C)C [Example 47, (1R,2S,5S)-N-{(2S)-4-(2-fluorophenoxy)-3-oxo-1-[(3S)-2-oxopyrrolidin-3-yl]butan-2-yl}-6,6-dimethyl-3-[N-(trifluoroacetyl)-L-valyl]-3-azabicyclo[3.1.0]hexane-2-carboxamide] | – | 8.58 nM | 7.22
CC(C)[C@H](NC(=O)C(F)(F)F)C(=O)N1C[C@H]2[C@@H]([C@H]1C(=O)N[C@@H](C[C@@H]1CCNC1=O)C(=O)COc1ccc(F)c(F)c1)C2(C)C [Example 48, (1R,2S,5S)-N-{(2S)-4-(3,4-difluorophenoxy)-3-oxo-1-[(3S)-2-oxopyrrolidin-3-yl]butan-2-yl}-6,6-dimethyl-3-[N-(trifluoroacetyl)-L-valyl]-3-azabicyclo[3.1.0]hexane-2-carboxamide] | – | 7.87 nM | 7.35
CC(C)[C@H](NS(=O)(=O)C(F)(F)F)C(=O)N1C[C@H]2[C@@H]([C@H]1C(=O)N[C@@H](C[C@@H]1CC(=O)NC1=O)C(=O)COc1ccc(F)cc1F)C2(C)C [Example 49, (1R,2S,5S)-N-{(2S)-4-(2,4-difluorophenoxy)-1-[(3R)-2,5-dioxopyrrolidin-3-yl]-3-oxobutan-2-yl}-6,6-dimethyl-3-[N-(trifluoromethanesulfonyl)-L-valyl]-3-azabicyclo[3.1.0]hexane-2-carboxamide] | – | 9.93 nM | 5.70
CC(C)[C@H](NC(=O)C(F)(F)F)C(=O)N1C[C@H]2[C@@H]([C@H]1C(=O)N[C@@H](C[C@@H]1CCNC1=O)C(=O)COc1cccc(Cl)c1)C2(C)C [Example 50, (1R,2S,5S)-N-{(2S)-4-(3-chlorophenoxy)-3-oxo-1-[(3S)-2-oxopyrrolidin-3-yl]butan-2-yl}-6,6-dimethyl-3-[N-(trifluoroacetyl)-L-valyl]-3-azabicyclo[3.1.0]hexane-2-carboxamide] | – | 10.7 nM | 7.12
Cc1ccc2c(OCC(=O)[C@H](C[C@@H]3CCNC3=O)NC(=O)[C@@H]3[C@@H]4[C@H](CN3C(=O)[C@@H](NC(=O)C(F)(F)F)C(C)C)C4(C)C)noc2c1 [Example 51, (1R,2S,5S)-6,6-dimethyl-N-{(2S)-4-[(6-methyl-1,2-benzoxazol-3-yl)oxy]-3-oxo-1-[(3S)-2-oxopyrrolidin-3-yl]butan-2-yl}-3-[N-(trifluoroacetyl)-L-valyl]-3-azabicyclo[3.1.0]hexane-2-carboxamide] | – | 10.5 nM | 7.03
CC(C)[C@H](NC(=O)C(F)(F)F)C(=O)N1C[C@H]2[C@@H]([C@H]1C(=O)N[C@@H](C[C@@H]1CCNC1=O)C(=O)COc1ccc(F)cc1)C2(C)C [Example 52, (1R,2S,5S)-N-{(2S)-4-(4-fluorophenoxy)-3-oxo-1-[(3S)-2-oxopyrrolidin-3-yl]butan-2-yl}-6,6-dimethyl-3-[N-(trifluoroacetyl)-L-valyl]-3-azabicyclo[3.1.0]hexane-2-carboxamide] | – | 10.5 nM | 7.13
CC(C)[C@H](NC(=O)C(F)(F)F)C(=O)N1C[C@H]2[C@@H]([C@H]1C(=O)N[C@@H](C[C@@H]1CCNC1=O)C(=O)COc1cc(F)ccc1F)C2(C)C [Example 53, (1R,2S,5S)-N-{(2S)-4-(2,5-difluorophenoxy)-3-oxo-1-[(3S)-2-oxopyrrolidin-3-yl]butan-2-yl}-6,6-dimethyl-3-[N-(trifluoroacetyl)-L-valyl]-3-azabicyclo[3.1.0]hexane-2-carboxamide] | – | 12 nM | 7.14
CC(C)[C@H](NS(=O)(=O)C(F)(F)F)C(=O)N1C[C@H]2[C@@H]([C@H]1C(=O)N[C@@H](C[C@@H]1CC(O)NC1=O)C(=O)COc1ccc(F)cc1F)C2(C)C (stereo partly drawn) [Example 54, (1R,2S,5S)-N-{(2S)-4-(2,4-difluorophenoxy)-1-[(3R)-5-hydroxy-2-oxopyrrolidin-3-yl]-3-oxobutan-2-yl}-6,6-dimethyl-3-[N-(trifluoromethanesulfonyl)-L-valyl]-3-azabicyclo[3.1.0]hexane-2-carboxamide] | – | 11.3 nM | 5.65
CC(C)[C@H](NC(=O)C(F)(F)F)C(=O)N1C[C@H]2[C@@H]([C@H]1C(=O)N[C@@H](C[C@@H]1CCNC1=O)C(=O)COc1nc(C(F)(F)F)nn1C)C2(C)C [Example 55, (1R,2S,5S)-6,6-dimethyl-N-{(2S)-4-{[1-methyl-3-(trifluoromethyl)-1H-1,2,4-triazol-5-yl]oxy}-3-oxo-1-[(3S)-2-oxopyrrolidin-3-yl]butan-2-yl}-3-[N-(trifluoroacetyl)-L-valyl]-3-azabicyclo[3.1.0]hexane-2-carboxamide] | – | 11.6 nM | 6.19

From patent US20250304559A1, “Ether-Linked Antiviral Compounds” (Pfizer Inc., priority 2021, published 2025)
